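Where inhibition never reached the appropriate level, the endpoint shown equals the highest concentration tested. Otherwise, values were interpolated linearly from a five-concentration, 48-hour dose response in 96-well plates. GI50 marks 50% less growth.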 Active and inactive are the calls of the source. Cut-off read from the data, not from the text of the source: active = GI50 up to about 1.1 µM and inactive = higher.

Among the test systems are IGROV-1; A498; KM12; HL-60; HT-29; COLO 205; RPMI-8226; HOP-62; HCT-116; Malme-3M; CAKI-1; 786-0; M14; SR; SK-MEL-5; U-251; LOX IMVI; OVCAR-5.
Assay in all cases: NCI-60 cell line screen, 48 h

For the compound `CCCCCCCCCCCCCCCCOCC(CP(=O)([O-])OCC[n+]1ccccc1)OC` (stereo not given), the GI50 was 3.84 µM (inactive) in the assay with IGROV-1; 11.3 µM (inactive) in the assay with A498; 2.67 µM (inactive) with KM12; 1.76 µM (inactive) in the assay with HL-60; 4.21 µM (inactive) with HT-29; 6.46 µM (inactive) with COLO 205. Also, the GI50 with RPMI-8226 is 2.96 µM (inactive); in the assay on HOP-62, 11.6 µM (inactive); in the assay on HCT-116, 9.66 µM (inactive); in the assay with Malme-3M, 17.8 µM (inactive); in the assay on CAKI-1, 10.4 µM (inactive); in the assay on 786-0, 14 µM (inactive). Besides, the GI50 is 5.6 µM (inactive) in the assay with M14, 3.5 µM (inactive) in the assay with SR and 14.1 µM (inactive) in the assay with SK-MEL-5.
For the compound `O=C(c1cccs1)N(C(=S)N1CCN(c2ccccn2)CC1)c1ccccc1`, the GI50 in the assay on IGROV-1, with KM12, in the assay on HL-60, in the assay on HT-29, in the assay on COLO 205 and in the assay with RPMI-8226 was > 100 µM (inactive) in each case. For the same compound, the GI50 is > 100 µM (inactive) with U-251; > 100 µM (inactive) in the assay on HOP-62; 56.2 µM (inactive) in the assay with HCT-116; > 100 µM (inactive) with Malme-3M; 76 µM (inactive) in the assay on CAKI-1; > 100 µM (inactive) with LOX IMVI. Also, the GI50 in the assay on 786-0 was > 100 µM (inactive); with M14, 76.7 µM (inactive); in the assay with SR, > 100 µM (inactive); with OVCAR-5 it was > 100 µM (inactive); in the assay with SK-MEL-5 it was 41.6 µM (inactive).
On to `CCOC(C)C(/C=N/NC(N)=S)=NNC(N)=S` (stereo not given) [GLOXAZONE], for which the GI50 with A498 is 21.9 µM (inactive); in the assay on KM12, > 100 µM (inactive); in the assay on HL-60, 0.0531 µM (active); with COLO 205 it was > 100 µM (inactive); in the assay on RPMI-8226, 0.0643 µM (active); in the assay with U-251, 1.07 µM (active). Moreover, the GI50 in the assay with HOP-62 is > 100 µM (inactive); in the assay with Malme-3M, 92.3 µM (inactive); in the assay with CAKI-1 it was > 100 µM (inactive); in the assay with LOX IMVI it was > 100 µM (inactive); with 786-0 it was > 100 µM (inactive); in the assay with SR it was < 0.0251 µM (active). Besides, the figures for the GI50 in the assay on OVCAR-5 and in the assay on SK-MEL-5 were > 100 µM (inactive) and 48.3 µM (inactive), respectively.
On to `NCCCOc1ccc([N+](=O)[O-])cc1Cl`, for which the GI50 was > 100 µM (inactive) in the assay with IGROV-1; > 100 µM (inactive) with KM12; > 100 µM (inactive) in the assay with HL-60; > 100 µM (inactive) in the assay on HT-29; > 100 µM (inactive) in the assay with COLO 205; 51.8 µM (inactive) in the assay on RPMI-8226. Besides, the GI50 in the assay with U-251 was > 100 µM (inactive); in the assay with HOP-62, 71.1 µM (inactive); with HCT-116 it was > 100 µM (inactive); with Malme-3M, > 100 µM (inactive); in the assay with CAKI-1 it was 28.1 µM (inactive); in the assay with 786-0, > 100 µM (inactive). Further, the GI50 in the assay on M14, in the assay on SR, in the assay with OVCAR-5 and in the assay on SK-MEL-5 was > 100 µM (inactive) in each case.
As for `O=C(O)C(CO)NC(=O)n1c2ccccc2c2ccccc21` (stereo not given), the GI50 in the assay with IGROV-1, in the assay on KM12, in the assay with HL-60, in the assay on HT-29, in the assay on COLO 205 and in the assay on RPMI-8226 was > 100 µM (inactive) in each case. In addition, the GI50 in the assay with HOP-62, in the assay with HCT-116, in the assay on Malme-3M, in the assay on CAKI-1, in the assay with LOX IMVI and in the assay with 786-0 was > 100 µM (inactive) in each case. Also, the GI50 in the assay on SR and in the assay on SK-MEL-5 was > 100 µM (inactive) each time.
As for `O=C1C=C(c2[nH]c3ccccc3c2C2=CC(=O)c3ccccc3C2=O)C(=O)c2ccccc21`, the GI50 in the assay with IGROV-1 is 30.1 µM (inactive); with A498 it was > 100 µM (inactive); in the assay with KM12, 36.1 µM (inactive); with HL-60, 21.8 µM (inactive); with HT-29, > 100 µM (inactive); in the assay on COLO 205 it was > 100 µM (inactive). The GI50 is 33 µM (inactive) with RPMI-8226; 32.8 µM (inactive) in the assay on U-251; 22.1 µM (inactive) with LOX IMVI; > 100 µM (inactive) with 786-0; 68.7 µM (inactive) in the assay with M14; 20.6 µM (inactive) in the assay with SR. For the same compound, the GI50 in the assay on OVCAR-5 is > 100 µM (inactive); in the assay on SK-MEL-5, 31.7 µM (inactive).
Take `C/C(=N\NS(=O)(=O)c1ccc(C)cc1)c1cc2ccccc2n1C`: the GI50 with IGROV-1 is > 100 µM (inactive); with A498, > 100 µM (inactive); in the assay with KM12 it was > 100 µM (inactive); in the assay on HL-60 it was > 100 µM (inactive); in the assay with HT-29 it was 76 µM (inactive); in the assay with COLO 205, > 100 µM (inactive). Besides, the GI50 in the assay on RPMI-8226 is > 100 µM (inactive); in the assay with U-251, 63.8 µM (inactive); with HOP-62, > 100 µM (inactive); with HCT-116, > 100 µM (inactive); with Malme-3M, > 100 µM (inactive); in the assay with LOX IMVI, > 100 µM (inactive). For the same compound, the GI50 in the assay on 786-0 was 68.7 µM (inactive); with M14 it was > 100 µM (inactive); with SR, > 100 µM (inactive); with SK-MEL-5, > 100 µM (inactive).
For `COc1cc(C=C2C(=O)OC(C)(C)OC2=O)cc(OC)c1OC`, the GI50 with KM12, with HL-60, with HT-29, with COLO 205, in the assay on RPMI-8226 and in the assay on U-251 was > 100 µM (inactive) in each case. Further, the GI50 with HCT-116, with Malme-3M, with CAKI-1, with LOX IMVI, with 786-0 and in the assay with M14 was > 100 µM (inactive) each time. Further, the GI50 in the assay on SR, in the assay with OVCAR-5 and in the assay on SK-MEL-5 was > 100 µM (inactive) in each case.
Turning to `CC1=C(C(=O)Nc2ccccc2C)C(c2ccco2)C(C(=O)Nc2ccccc2C)=C(C)N1C`, the GI50 with IGROV-1, in the assay with KM12, in the assay with HL-60, in the assay on HT-29, in the assay with RPMI-8226 and with U-251 was > 100 µM (inactive) in each case. Moreover, the GI50 in the assay with HOP-62, in the assay on HCT-116, in the assay on Malme-3M, in the assay with CAKI-1, with LOX IMVI and in the assay with 786-0 was > 100 µM (inactive) in each case. Also, the GI50 with M14 was > 100 µM (inactive); in the assay on SR it was 72.8 µM (inactive); in the assay on OVCAR-5 it was > 100 µM (inactive); in the assay on SK-MEL-5 it was > 100 µM (inactive).
For `O=C1Nc2c(ccc(Cl)c2I)C1=O`, the GI50 is 16.6 µM (inactive) in the assay on IGROV-1; 24.4 µM (inactive) in the assay on KM12; 18.5 µM (inactive) with HL-60; 28.4 µM (inactive) in the assay with HT-29; 16.3 µM (inactive) with COLO 205; 15.5 µM (inactive) in the assay with RPMI-8226. Further, the GI50 in the assay with U-251 is 25.5 µM (inactive); with HOP-62 it was 20.8 µM (inactive); in the assay on HCT-116, 19.1 µM (inactive); in the assay with Malme-3M, 15 µM (inactive); in the assay with CAKI-1, 16.4 µM (inactive); with LOX IMVI, 19.1 µM (inactive). Also, the GI50 with 786-0 is 15 µM (inactive); with M14, 15.7 µM (inactive); in the assay on SR, 18.8 µM (inactive); in the assay with OVCAR-5, 20 µM (inactive); in the assay with SK-MEL-5, 15.7 µM (inactive).
Turning to `Cn1cnc([N+](=O)[O-])c1Sc1nnc(C(F)(F)F)n1C`, the GI50 in the assay on IGROV-1 was 40 µM (inactive); in the assay on A498, > 100 µM (inactive); with KM12, > 100 µM (inactive); with HT-29, 35.7 µM (inactive); in the assay with COLO 205 it was 14.6 µM (inactive); in the assay with RPMI-8226, 19.7 µM (inactive). Also, the GI50 was 17.1 µM (inactive) in the assay with U-251; > 100 µM (inactive) in the assay with HOP-62; 16.3 µM (inactive) in the assay on HCT-116; 15.1 µM (inactive) with Malme-3M; 62.1 µM (inactive) with CAKI-1; 15.3 µM (inactive) with LOX IMVI. Besides, the GI50 with 786-0 is 39.4 µM (inactive); in the assay with M14, 17.4 µM (inactive); in the assay with SR it was 17.6 µM (inactive); with OVCAR-5, > 100 µM (inactive); with SK-MEL-5, 32.6 µM (inactive).
In the case of `Cc1ccc(Cl)c2c(=O)cc(-c3ccccc3)[nH]c12`, the GI50 with IGROV-1 is 85.3 µM (inactive); in the assay with KM12, 25.4 µM (inactive); with HL-60, 48.5 µM (inactive); in the assay on HT-29, 50.4 µM (inactive); in the assay on COLO 205 it was > 100 µM (inactive); in the assay on RPMI-8226, 40.8 µM (inactive). Further, the GI50 in the assay on U-251 is 88.5 µM (inactive); with HOP-62, 54.3 µM (inactive); with HCT-116, 58.5 µM (inactive); in the assay with Malme-3M, 51.6 µM (inactive); with CAKI-1, 84.9 µM (inactive); with LOX IMVI, 39.7 µM (inactive). Moreover, the GI50 is > 100 µM (inactive) in the assay with 786-0; 43 µM (inactive) with M14; 25.1 µM (inactive) with SR; 71.6 µM (inactive) in the assay with OVCAR-5; 37.8 µM (inactive) in the assay on SK-MEL-5.
Consider `O=C1C(Cl)=C(NCCOCCO)C(=O)c2c(O)ccc(O)c21`, for which the GI50 is 5.6 µM (inactive) in the assay with IGROV-1; 3.32 µM (inactive) with KM12; 3.89 µM (inactive) in the assay with HL-60; 3.08 µM (inactive) in the assay with HT-29; 2.17 µM (inactive) in the assay on COLO 205; 3.1 µM (inactive) with RPMI-8226. Further, the GI50 in the assay on U-251 was 17 µM (inactive); with HOP-62, 20 µM (inactive); in the assay on HCT-116, 2.86 µM (inactive); in the assay with Malme-3M it was 2.82 µM (inactive); in the assay on CAKI-1, 23.9 µM (inactive); in the assay on LOX IMVI it was 3.61 µM (inactive). The GI50 in the assay on 786-0 is 4.97 µM (inactive); in the assay on M14 it was 11.2 µM (inactive); in the assay with SR, 6.53 µM (inactive); in the assay on OVCAR-5, 19.5 µM (inactive); in the assay on SK-MEL-5, 1.96 µM (inactive).

(Values after ChEMBL document CHEMBL1201862, “PubChem BioAssay data set” (2004).)
